US20010044445A1, “AZOLE INHIBITORS OF CYTOKINE PRODUCTION” (priority 1999, published 2001)

System: Human peripheral blood mononuclear cells
Test: Human Concanavalin-A Proliferation Assay (Con HU Assay)
Format: cell-based
Conditions: concanavalin-A stimulated human PBMC; for IC50: tritiated thymidine; for inhibition at 1 µM / inhibition at 100 µM / inhibition at 10 µM: 72 h, read-out: % Inhibition of proliferation (at concentrations of 1,10, or 100 μm); for inhibition at 1 µM / % Inhibition of proliferation (at concentrations of 1,10, or 100 μm) / inhibition at 100 µM / inhibition at 10 µM: 3 days
Description: Human peripheral blood mononuclear cells were cultured in RPMI 1640 medium supplemented with 10 μg/ml gentamicin, 50 μM 2-mercaptoethanol, 1X MEM non-essential amino acids (Sigma Chemical Co., St. Louis, Mo.), 100 U/ml sodium penicillin G, 100 μg/ml streptomycin sulfate, 2 mM L-glutamine, 1 mM sodium pyruvate (Life Technologies, Grand Island, N.Y.) and 10% fetal bovine serum (Hyclone, Logan, Utah) at 37° C. with 5% CO2.
The procedure in Current Protocols in Immunology, Volume 1, Published by the Greene Publishing Associates and John Wiley & Sons, Inc, Edited by Richard Coico, 1994, hereby incorporated by reference, was followed. Briefly, 50 ml of blood from human volunteers was collected in heparinized syringes and mixed. Blood was diluted 1:1 in Dulbecco's phosphate buffered saline (D-PBS) (Life Technologies, Grand Island, N.Y.) and mixed. PBS-blood mixture was overlaid into 50 ml centrifuge tubes containing 15 ml Histopaque 1077 (Sigma Chemical Co., St. Louis, Mo.) and centrifuged at 500 X G for 30 minutes at room temperature. Cells at the interface from each Histopaque tube were removed and mixed with 5 ml of D-PBS. Each cell suspension was diluted to 50 ml with D-PBS, mixed and centrifuged at 400 X G for 15 minutes at room temperature. After most of the supernatant was removed, cells were resuspended to 40 ml with D-PBS per tube (2 tubes per donor). Cells were centrifuged at 400 X G for 10 minutes at room temperature. Pellets were resuspended in 10 ml of supplemented RPMI 1640 and cell number determined with a Coulter counter. Cells were diluted to a concentration of 0.5×10^6 cells per mL.
The procedure in Current Protocols in Immunology, Volume 1, Published by the Greene Publishing Associates and John Wiley & Sons, Inc, Edited by Richard Coico, 1994, hereby incorporated by reference, was followed. Briefly, test compounds were added to appropriate wells on 96-well tissue culture plates (Corning Glass Works, Corning, N.Y.) in 20 µl of supplemented RPMI 1640. Human peripheral blood mononuclear cells were added to each well in 100 μl volumes (final cell concentration equal to 50,000 cells per well). After 15 minutes, 100 μl of 5 μg/ml concanavalin-A (Sigma Chemical Co., St. Louis, Mo.) in supplemented RPMI 1640 was added to a final concentration of 2.5 μg/ml. Plates were incubated for 3 days at 37° C. with 5% CO2. On day 3, plates were pulsed with 0.5 μCi/well tritiated thymidine (New England Nuclear, Boston, Mass.). After 6 hours, plates were harvested on a Tomatec 96-well havester (Orange, Conn.). Glass filter mats were counted on a Matrix 9600 direct beta counter (Packard, Meriden, Conn.).

[1] = Homo sapiens, PBMC, concentration 1 μm (in parentheses in the cell)
[2] = concentration 10 μm (in parentheses in the cell)
[3] = concentration 1 μm (in parentheses in the cell)
[4] = Homo sapiens, PBMC, concentration 100 μm (in parentheses in the cell)
[5] = Homo sapiens, PBMC, concentration 10 μm (in parentheses in the cell)

SMILES | IC50 (Homo sapiens, PBMC) | other results
O=C(Nc1ccc(-n2nc(-c3cncc(Br)c3)cc2OC(F)F)cc1)c1ccncc1F [Example 339, N-(4-(3-(5-bromo-3-pyridinyl)-5-(difluoromethoxy)-1H-pyrazol-1-yl)phenyl)-3-fluoroisonicotinamide] | 369 nM | 
Nc1cc(NC(=O)c2ccccc2F)ccc1-n1nc(C(F)(F)F)cc1C(F)(F)F [Example 298, N-{3-amino-4-[3,5-bis(trifluoromethyl)-1H-pyrazol-1-yl]phenyl}-2-fluorobenzamide] | 332 nM | 
CN(C(=O)c1ccccc1Cl)c1ccc(-n2nc(C(F)(F)F)cc2C(F)(F)F)cc1 [Example 80, N-[4-[3,5-bis(trifluoromethyl)-1H-pyrazol-1-yl]phenyl]-2-chloro-N-methylbenzamide] |  | inhibition at 1 µM [1]: 43%
N#Cc1cccc(NCc2ccc(-n3nc(C(F)(F)F)cc3C(F)(F)F)cc2)c1 [Example 95, 3-[4-[[[3,5-bis(trifluoromethyl)-1H-pyrazol-1-yl]phenyl]methyl]amino]benzonitrile] |  | IC50: 7280 nM; % Inhibition of proliferation (at concentrations of 1,10, or 100 μm) [2]: 47(10) %
O=C(Nc1ccc(-n2nc(C(F)(F)F)cc2C(F)(F)F)cc1)c1ccc(O)c(Br)c1 [Example 222] |  | IC50: 760 nM; % Inhibition of proliferation (at concentrations of 1,10, or 100 μm) [2]: 100(10) %
CC1(C)C(C(=O)Nc2ccc(-n3nc(C(F)(F)F)cc3C(F)(F)F)cc2)C1(C)C [Example 2, N-[4-[3,5-bis(trifluoromethyl)-1H-pyrazol-1-yl]phenyl]-2.2.3.3-tetramethylcyclopropanecarboxamide] |  | % Inhibition of proliferation (at concentrations of 1,10, or 100 μm) [3]: 1(1) %
O=C(Nc1ccc(-n2nc(C(F)(F)F)cc2C(F)(F)F)cn1)c1ccccc1F [Example 297, N-(5-(3,5-bis(trifluoromethyl)-1H-pyrazol-1-yl)-2-pyridinyl)-2-fluorobenzamide] | 251 nM | 
CCOc1cc(C(F)(F)F)nn1-c1ccc(NC(=O)c2cccnc2F)cc1 [Example 319, N-(4-(5-ethoxy-3-(trifluoromethyl)-1H-pyrazol-1-yl)phenyl)-2-fluoronicotinamide] | 219 nM | 
O=C(Nc1ccc(-n2nc(C(F)(F)F)cc2[N+](=O)[O-])cc1)c1ccncc1F [Example 333, 3-fluoro-N-(4-(5-nitro-3-(trifluoromethyl)-1H-pyrazol-1-yl)phenyl)isonicotinamide] | 410 nM | 
Cc1cc(C(F)(F)F)nn1-c1ccc(NC(=O)c2ccc(Cl)cc2)cc1 [Example 281, 4-chloro-N-[4-[5-methyl-3-(trifluoromethyl)-1H-pyrazol-1-yl]phenyl]benzamide] | 1060 nM | inhibition at 100 µM [4]: 94%
Cc1nnsc1C(=O)Nc1ccc(-n2nc(-c3ccoc3)cc2Cl)cc1 [Example 355, N-(4-(5-chloro-3-(3-furyl)-1H-pyrazol-1-yl)phenyl)-4-methyl-1,2,3-thiadiazole-5-carboxamide] | 282 nM | 
O=C(Nc1ccc(-n2nc(C(F)(F)F)cc2Br)cc1)c1ccncc1F [Example 332, N-(4-(5-bromo-3-(trifluoromethyl)-1H-pyrazol-1-yl)phenyl)-3-fluoroisonicotinamide] | 44 nM | 
O=C(Nc1ccc(-n2nc(C(F)(F)F)cc2-c2ccco2)cc1)c1ccccc1F [Example 301, 2-fluoro-N-(4-(5-(2-furyl)-3-(trifluoromethyl)-1H-pyrazol-1-yl)phenyl)benzamide] | 232 nM | 
O=C(Nc1ccc(-n2nc(-c3cccnc3)cc2[N+](=O)[O-])cc1)c1ccncc1F [Example 334, 3-fluoro-N-{4-[5-nitro-3-(3-pyridinyl)-1H-pyrazol-1-yl]phenyl}isonicotinamide] | 297 nM | 
O=C(Nc1ccc(-n2nc(C(F)(F)F)cc2C(F)(F)F)cc1)c1cncc(Br)c1 [Example 256, N-[4-[3,5-bis(trifluoromethyl)-1H-pyrazol-1-yl]phenyl]-5-bromo-3-pyridinecarboxamide] | 250 nM | inhibition at 10 µM [5]: 100%
Fc1ccc(/N=C/c2ccc(-n3nc(C(F)(F)F)cc3C(F)(F)F)cc2)c(F)c1 [Example 97, (E)-N-[4-[3,5-bis(trifluoromethyl)-1H-pyrazol-1-yl]phenylmethylene]-2,4-difluorobenzenamine] |  | inhibition at 10 µM [5]: 20%
CSc1cc(C(F)(F)F)nn1-c1ccc(NC(=O)c2ccccc2F)cc1 [Example 309, 2-fluoro-N-(4-(5-(methylsulfanyl)-3-(trifluoromethyl)-1H-pyrazol-1-yl)phenyl)benzamide] | 32 nM | 
Cc1nnsc1C(=O)Nc1ccc(-n2nc(-c3nccs3)cc2C(F)(F)F)cc1 [Example 342, 4-methyl-N-(4-(3-(1,3-thiazol-2-yl)-5-(trifluoromethyl)-1H-pyrazol-1-yl)phenyl)-1,2,3-thiadiazole-5-carboxamide] | 238 nM | 
CNC(=O)c1ccccc1C(=O)Nc1ccc(-n2nc(C(F)(F)F)cc2C(F)(F)F)cc1 [Example 115, N-[4-[3,5-bis(trifluoromethyl)-1H-pyrazol-1-yl]phenyl]-N′-methyl-1,2-benzenedicarboxamide] | 51300 nM | inhibition at 100 µM [4]: 71%
CC(=O)Nc1ccc(-n2nc(C(F)(F)F)cc2C(F)(F)F)cc1 [Example 156] |  | % Inhibition of proliferation (at concentrations of 1,10, or 100 μm) [3]: 16(1) %
Cn1cccc1-c1cc(OC(F)F)n(-c2ccc(NC(=O)c3ccncc3F)cc2)n1 [Example 360, N-(4-(5-(difluoromethoxy)-3-(1-methyl-1H-pyrrol-2-yl)-1H-pyrazol-1-yl)phenyl)-3-fluoroisonicotinamide] | 329 nM | 
Cc1nnsc1C(=O)Nc1ccc(-n2nc(-c3cccnc3)cc2[N+](=O)[O-])cc1 [Example 337, N-[4-[3-(3-pyridyl)-5-nitro-1H-pyrazol-1-yl]phenyl]-4-methylthiadiazol-5-yl-carboxamide] |  | IC50: 221 nM
O=C(Nc1ccc(-n2nc(C(F)(F)F)cc2C(F)(F)F)cc1)c1ccccn1 [Example 121, N-[4-[3,5-bis(trifluoromethyl)-1H-pyrazol-1-yl]phenyl]-2-pyridinecarboxamide] | 10600 nM | inhibition at 100 µM [4]: 53%
O=C(Nc1ccc(-n2nc(-c3ccoc3)cc2OC(F)F)cc1)c1ccncc1F [Example 359, N-(4-(5-(difluoromethoxy)-3-(3-furyl)-1H-pyrazol-1-yl)phenyl)-3-fluoroisonicotinamide] | 261 nM | 
CN(C(=O)c1ccc([N+](=O)[O-])cc1Cl)c1ccc(-n2nc(C(F)(F)F)cc2C(F)(F)F)cc1 [Example 81, N-[4-[3,5-bis(trifluoromethyl)-1H-pyrazol-1-yl]phenyl]-2-chloro-4-nitro-N-methylbenzamide] |  | inhibition at 1 µM [1]: 30%
O=C(Nc1ccc(-n2nc(C(F)(F)F)cc2C(F)(F)F)cc1)c1ccc(Br)o1 [Example 251, N-[4-[3,5-bis(trifluoromethyl)-1H-pyrazol-1-yl]phenyl]-5-bromo-2-furancarboxamide] |  | inhibition at 1 µM [1]: 50%
O=C(Nc1ccc(-n2nc(C(F)(F)F)cc2C(F)(F)F)cc1)c1cccc2ccccc12 [Example 66, N-[4-[3,5-bis(trifluoromethyl)-1H-pyrazol-1-yl]phenyl]-1-naphthylenecarboxamide] |  | IC50: 1040 nM; % Inhibition of proliferation (at concentrations of 1,10, or 100 μm) (concentration 100 μm (in parentheses in the cell)): 97(100) %
O=C(Nc1ccc(-n2nc(-c3cccnc3)cc2C(F)F)cc1)c1ccncc1F [Example 329, N-(4-(5-(difluoromethyl)-3-(3-pyridinyl)-1H-pyrazol-1-yl)phenyl)-3-fluoroisonicotinamide] | 303 nM | 
COC(=O)c1cc(NC(=O)c2ccccc2F)ccc1-n1nc(C(F)(F)F)cc1C(F)(F)F [Example 293, methyl 2-(3,5-bis(trifluoromethyl)-1H-pyrazol-1-yl)-5-((2-fluorobenzoyl)amino)benzoate] | 409 nM | 
